Assay results taken from BigSolDB 2.1.

C1=Cc2ccccc2Nc2ccccc21
solubility (mole fraction)
Settings	278.15 K	283.15 K	288.15 K	293.15 K	298.15 K	303.15 K	308.15 K	313.15 K	318.15 K	323.15 K
in 1,4-dioxane	–	–	0.0312	0.0349	0.0392	0.0423	0.0481	0.052	0.058	0.0632
in DMAc	0.113	0.122	0.13	0.139	0.149	0.159	0.17	0.179	0.192	0.203
in DMF	0.109	0.116	0.122	0.129	0.136	0.144	0.153	0.161	0.169	0.178
in NMP	0.219	0.223	0.23	0.239	0.246	0.251	0.257	0.265	0.273	0.281
in acetone	0.0162	0.0178	0.0197	0.0219	0.0242	0.0268	0.0296	0.0327	0.0363	0.04
in acetonitrile	0.00245	0.00298	0.00345	0.00412	0.00489	0.00575	0.00676	0.00782	0.00933	0.0108
in ethyl acetate	0.01	0.0116	0.0133	0.015	0.0172	0.0193	0.0214	0.0243	0.0271	0.03
in isobutyl acetate	0.0105	0.0119	0.0132	0.0146	0.0161	0.0184	0.0206	0.023	0.0257	0.0285
in isopropyl acetate	0.00918	0.0104	0.0118	0.0133	0.0152	0.0168	0.0181	0.0202	0.0222	0.0249
in methyl acetate	0.00825	0.0092	0.0102	0.0118	0.0132	0.015	0.017	0.0192	0.0215	0.0239
in n-butyl acetate	0.0133	0.0152	0.0171	0.0189	0.0208	0.0236	0.0261	0.0289	0.0321	0.0362
in n-propyl acetate	0.0126	0.0143	0.0157	0.0175	0.0194	0.0215	0.0239	0.0267	0.0299	0.0331
